Here are results for one sequence from patent publication US20110287442A1, “Tumor Antigen Protein, Gene, or Peptides from Topoisimerase 2 Alpha” (CATHOLIC UNIVERSITY INDUSTRY ACADEMIC COOPERATION FOUNDATION, priority 2010, published 2011).

The test system of this assay is splenocytes from the mice vaccinated with Top2αC RNA/DCs. The experiment in a line: IFN-γ ELISA of splenocytes stimulated with Top2αC-derived peptides. Format: cell-based, mouse. Conditions: 1 μg/ml peptides, three days, compared to other peptides. As to the method: The 5 Top2αC-derived peptides binding to MHC class I molecules (H-2 Kb) with a high score were selected by BIMAS and […], and in order to determine T lymphocyte epitopes of Top2αC, splenocytes from the mice vaccinated with Top2αC RNA/DCs were stimulated with Top2αC-derived peptides, and then IFN-γ production was determined by ELISA.
Splenocytes (2×10^5 cells/200 μl) of a mouse vaccinated with Top2αC RNA/DCs were incubated with 1 μg/ml peptides in a round-bottomed 96-well plate. Three days later, the plate was centrifuged and 100 μl of the supernatant was removed from each well. The level of IFN-γ was determined by ELISA (eBioscience, San Diego, USA).

For “DSDEDFSGL [p1327, Top2αC-derived peptide, location 1327-1355 as printed]”, the IFN-γ production result was “higher level”.
